Assay results taken from US5869494A, “Uses for barbituric acid analogs” (priority 1997, dated 1999).
Where two headings read alike, the source gives them in different places.

Tests used:
Type in all cases: cell-based
[1] = tested on: DU-145 human prostate cancer cells; assay: Cytotoxicity for prostate cancer cell line DU-145 (MTT assay); settings: read-out: Percent cell kill; for cytotoxicity at 100 µg/mL: 100 μg/ml; for cytotoxicity at 150 µg/mL: 150 μg/ml; for cytotoxicity at 200 µg/mL: 200 μg/ml
Method: (§1) In the following examples, tumor cells were treated with varying concentrations of compounds C1, C2, C4 or C5 dissolved in absolute ethanol. To limit any non-specific toxicity, the final concentration of ethanol was not allowed to exceed 0.5%. Stock concentrations of 5 mg/ml or 20 mg/ml were used. Viability of cells was determined in some studies by the trypan blue dye exclusion method. In other studies, cell viability/proliferation activity was determined by MTT assay by using a kit obtained from Promega, (Promega Corp., Madison, Wis. 53711). For this assay, a 100 μl cell suspension containing 5-10^3 monolayer cells or 1×10^5 suspension cells was placed in the wells of a 96-well microtiter plate. After overnight incubation, cells were treated with different concentrations of the test compound. Control wells received vehicle only. After 24, 48, 72 or 96 h of incubation, 50 μl of MTT dye solution was added. After 4 h of incubation at 37° C., 100 μl of solubilization/stop solution was added. After another h of incubation, cells were mixed using a multi-channel pipet and the absorption of the dye color was recorded at 570 nm using a plate reading absorption spectrophotometer.
(§2) After the incubation period, viability of the cells was determined by MTT assay (Promega Corp., Madison, Wis. 53711).

[2] = tested on: BT-20 human breast cancer cells; assay: Cytotoxicity for breast cancer cell line BT-20 (MTT assay); settings: read-out: Percent cell kill; for cytotoxicity at 100 µg/mL: 100 μg/ml; for cytotoxicity at 150 µg/mL: 150 μg/ml; for cytotoxicity at 200 µg/mL: 200 μg/ml
Method: as §1, §2

[3] = tested on: L1210 mouse leukemia cells; assay: Cytotoxicity for leukemia cells (L1210); settings: for cytotoxicity at 100 µg/mL / cytotoxicity at 150 µg/mL / cytotoxicity at 200 µg/mL: Mus musculus; for cytotoxicity at 100 µg/mL: 100 μg/ml; for cytotoxicity at 150 µg/mL: 150 μg/ml
Method: as §1
The viability of the cells was […]

[4] = tested on: MCF-7 human breast cancer cells; assay: Cytotoxicity for breast cancer cell line MCF-7 (MTT assay); settings: read-out: Percent cell kill; for cytotoxicity at 100 µg/mL: 100 μg/ml; for cytotoxicity at 150 µg/mL: 150 μg/ml; for cytotoxicity at 200 µg/mL: 200 μg/ml
Method: as §1, §2

[5] = tested on: Daudi human lymphoma cells; assay: Cytotoxicity for lymphoma cells (Daudi); settings: Homo sapiens, Daudi; for cytotoxicity at 100 µg/mL: 100 μg/ml; for cytotoxicity at 150 µg/mL: 150 μg/ml, read-out: % Cytotoxicity; for cytotoxicity at 200 µg/mL: 200 μg/ml
Method: as §1
The viability of the cells was
Compounds C4 and C5 were also tested for toxicity against human lymphoma Daudi cells.

[6] = tested on: PC-3 human prostate cancer cells; assay: Cytotoxicity for prostate cancer cell line PC-3 (MTT assay); settings: read-out: Percent cell kill; for cytotoxicity at 100 µg/mL: 100 μg/ml; for cytotoxicity at 150 µg/mL: 150 μg/ml; for cytotoxicity at 200 µg/mL: 200 μg/ml
Method: as §1, §2

Q: Which results are given for `CCCCN1C(=O)C(=O)C(=O)N(CCCC)C1=S` [Compound C2, 4,5,6(1H)-pyrimidinetrione, 1,3-dibutyldihydro-2-thioxo]?
A: cytotoxicity at 100 µg/mL ([1]; DU-145, 24 h, 24 hr): 0%; cytotoxicity at 150 µg/mL ([1]; DU-145, 24 h, 24 hr): 0%; cytotoxicity at 200 µg/mL ([1]; DU-145, 24 h, 24 hr): 0%; cytotoxicity at 100 µg/mL ([1]; DU-145, 48 h, 48 hr): 0%; cytotoxicity at 150 µg/mL ([1]; DU-145, 48 h, 48 hr): 4.2 ± 3.9%; cytotoxicity at 200 µg/mL ([1]; DU-145, 48 h, 48 hr): 20 ± 3%; cytotoxicity at 100 µg/mL ([1]; DU-145, 72 h, 72 hr): 0%; cytotoxicity at 150 µg/mL ([1]; DU-145, 72 h, 72 hr): 9.2 ± 5.3%; cytotoxicity at 200 µg/mL ([1]; DU-145, 72 h, 72 hr): 36.7 ± 2.1%; cytotoxicity at 100 µg/mL ([1]; DU-145, 96 h, 96 hr): 10 ± 6.1%; cytotoxicity at 150 µg/mL ([1]; DU-145, 96 h, 96 hr): 25.2 ± 7.4%; cytotoxicity at 200 µg/mL ([1]; DU-145, 96 h, 96 hr): 43.7 ± 4.3%; cytotoxicity at 100 µg/mL ([2]; BT-20, 24 h, 24 hr): 29.8 ± 6.8%; cytotoxicity at 150 µg/mL ([2]; BT-20, 24 h, 24 hr): 30 ± 4.4%; cytotoxicity at 200 µg/mL ([2]; BT-20, 24 h, 24 hr): 30.3 ± 2.9%; cytotoxicity at 100 µg/mL ([2]; BT-20, 48 h, 48 hr): 51.8 ± 1.9%; cytotoxicity at 150 µg/mL ([2]; BT-20, 48 h, 48 hr): 50 ± 1.7%; cytotoxicity at 200 µg/mL ([2]; BT-20, 48 h, 48 hr): 55.5 ± 8.9%; cytotoxicity at 100 µg/mL ([2]; BT-20, 72 h, 72 hr): 57.5 ± 2.6%; cytotoxicity at 150 µg/mL ([2]; BT-20, 72 h, 72 hr): 60.8 ± 2.8%; cytotoxicity at 200 µg/mL ([2]; BT-20, 72 h, 72 hr): 68.5 ± 3.4%; cytotoxicity at 100 µg/mL ([2]; BT-20, 96 h, 96 hr): 99.9%; cytotoxicity at 150 µg/mL ([2]; BT-20, 96 h, 96 hr): 99.9%; cytotoxicity at 200 µg/mL ([2]; BT-20, 96 h, 96 hr): 99.9%; % Cytotoxicity ([3]; 200 μg/ml, 24 hr, 1440 min): > 58%; cytotoxicity at 100 µg/mL ([3]; L1210, 24 h, 24 hr): 33.2 ± 2%; cytotoxicity at 150 µg/mL ([3]; L1210, 24 h, 24 hr): 50 ± 4.1%; cytotoxicity at 200 µg/mL ([3]; L1210, 24 h, 200 μg/ml, 24 hr): 58.7 ± 2.6%; cytotoxicity at 100 µg/mL ([3]; L1210, 48 h, 48 hr): 29 ± 3.5%; cytotoxicity at 150 µg/mL ([3]; L1210, 48 h, 48 hr): 53.7 ± 2.5%; cytotoxicity at 200 µg/mL ([3]; L1210, 48 h, 200 μg/ml, 48 hr): 72.5 ± 2.4%; cytotoxicity at 100 µg/mL ([4]; MCF7, 24 h, 24 hr): 9 ± 7%; cytotoxicity at 150 µg/mL ([4]; MCF7, 24 h, 24 hr): 26.3 ± 7.9%; cytotoxicity at 200 µg/mL ([4]; MCF7, 24 h, 24 hr): 40 ± 10.6%; cytotoxicity at 100 µg/mL ([4]; MCF7, 48 h, 48 hr): 16.3 ± 4.8%; cytotoxicity at 150 µg/mL ([4]; MCF7, 48 h, 48 hr): 43.3 ± 7.3%; cytotoxicity at 200 µg/mL ([4]; MCF7, 48 h, 48 hr): 70.3 ± 7.8%; cytotoxicity at 100 µg/mL ([4]; MCF7, 72 h, 72 hr): 33.3 ± 5.4%; cytotoxicity at 150 µg/mL ([4]; MCF7, 72 h, 72 hr): 61 ± 5.6%; cytotoxicity at 200 µg/mL ([4]; MCF7, 72 h, 72 hr): 81.3 ± 3.2%; cytotoxicity at 100 µg/mL ([4]; MCF7, 96 h, 96 hr): 87.7 ± 0.6%; cytotoxicity at 150 µg/mL ([4]; MCF7, 96 h, 96 hr): 97 ± 0.8%; cytotoxicity at 200 µg/mL ([4]; MCF7, 96 h, 96 hr): 94.3 ± 2.1%; cytotoxicity at 100 µg/mL ([5]; 24 h): 57.5 ± 3%; cytotoxicity at 150 µg/mL ([5]; 24 h, 24 hr): 81.3 ± 4%; cytotoxicity at 200 µg/mL ([5]; 24 h): 93.2 ± 3.3%; cytotoxicity at 100 µg/mL ([5]; 48 h): 41.5%; cytotoxicity at 150 µg/mL ([5]; 48 h, 48 hr): 92%; cytotoxicity at 200 µg/mL ([5]; 48 h): 88%; cytotoxicity at 100 µg/mL ([6]; 24 h, 24 hr): 32.7 ± 6.2%; cytotoxicity at 150 µg/mL ([6]; 24 h, 24 hr): 47 ± 6.7%; cytotoxicity at 200 µg/mL ([6]; 24 h, 24 hr): 57.5 ± 3.5%; cytotoxicity at 100 µg/mL ([6]; 48 h, 48 hr): 46.2 ± 4.1%; cytotoxicity at 150 µg/mL ([6]; 48 h, 48 hr): 70.7 ± 6%; cytotoxicity at 200 µg/mL ([6]; 48 h, 48 hr): 81.5 ± 3.1%; cytotoxicity at 100 µg/mL ([6]; 72 h, 72 hr): 51.5 ± 6.5%; cytotoxicity at 150 µg/mL ([6]; 72 h, 72 hr): 77.7 ± 4.6%; cytotoxicity at 200 µg/mL ([6]; 72 h, 72 hr): 88.5 ± 5.2%; cytotoxicity at 100 µg/mL ([6]; 96 h, 96 hr): 75 ± 1%; cytotoxicity at 150 µg/mL ([6]; 96 h, 96 hr): 88.7 ± 3.2%; cytotoxicity at 200 µg/mL ([6]; 96 h, 96 hr): 95 ± 3.6%
